Consider 3 compounds from US20260217701A1, “SELECTIVE BET INHIBITORS AND USES THEREOF” (Tay Therapeutics Limited, priority 2022, published 2026).

The test system of data set [1] is lupus. Put plainly: SLE (lupus) model: blood urea nitrogen (BUN) in serum. It counts as in vivo, MRL/MpJ-Faslpr mice. As to conditions: Cyclophosphamide 50 mg/kg IP once a week; Week 19. The protocol:
(§1) Female MRL/MpJ-Faslpr mice (The Jackson Laboratory) were used to assess the efficacy of Compound A in treating lupus. Starting when animals were 10 weeks of age, protein concentration in urine was measured using urine dipsticks.
At the start of the study, each group in the study had two animals that were 9 weeks old, and all others were 10 weeks old. Dosing of all animals with the test compounds began when the older animals were 11 weeks old. Starting on Day 1, in Groups 1-4, vehicle or Compound A was administered per os (PO) […] (QD) as described above in Table 33. […] Dosing was at a consistent time each dosing day throughout the study.
(§2) Compound A may be formulated as illustrated in Experimental Method A (see Table 2E.). […] A stock solution of Compound A in DMSO (stock solution concentration of Compound A of 40 mg/mL) was prepared and aliquots for weekly preparations were frozen at −20° C. On each preparation day, a stock solution aliquot was thawed and diluted with other vehicle components to the desired concentration. Formulated Compound A and vehicle were at room temperature for dosing.
(§3) The study began when the older animals were 11 weeks old, and concluded when the older animals were 19 weeks old. Body weight was recorded once a week, with the exception of two weight measurements taken the first week of the study (when the older animals were 11 weeks old). Proteinuria was measured in the urine of animals with urine dipsticks once a week, starting when the older animals were 10 weeks old. […] Blood samples were taken retro-orbitally at the start of the study to establish a baseline (15 animals, 3 per group), and when the older animals were 16 weeks (all animals) and when animals were 19 weeks (all animals) at the conclusion of the study. Blood urea nitrogen (BUN) was measured in all animals at study termination in blood samples. After blood collection, animals were euthanized, perfused with PBS, and the left kidneys were collected and weighed and fixed in 10% buffered formalin. Left kidneys were then processed to a formalin-fixed, paraffin-embedded (FFPE) block, and histology was analyzed in Periodic Acid-Schiff-stained sections (1 section per slide), using the criteria described in Alperovich et al., Lupus, 16:18-24 (2007). Right kidneys were weighed and snap-frozen at −80° C. Spleens were also collected and weighed. SLE in animals treated with a BET inhibitor and vehicle.
BUN provides important information about how well kidneys are working. A BUN test measures the amount of urea nitrogen in the blood and indicates how much urea has been processed by the kidneys and is indicative of renal competency. Urea is a waste product that is excreted in urine.

For data set [2], the system named is lupus. The data set is described as follows: SLE (lupus) model: kidney histology lesion scores. In kind it is in vivo, MRL/MpJ-Faslpr mice. The conditions noted are these: Week 19. The method, then:
as §1
(§4) At the start of the study, each group in the study had two animals that were 9 weeks old, and all others were 10 weeks old. Dosing of all animals with the test compounds began when the older animals were 11 weeks old. […] […] Dosing was at a consistent time each dosing day throughout the study.
as §2, §3

Data set [3] in a line: SLE (lupus) model: body weight. The conditions noted are these: for Mean Body Weight: Cyclophosphamide 50 mg/kg IP once a week. It counts as in vivo, MRL/MpJ-Faslpr mice. The method, then: as §1, §4, §2, §3
Data set [4] concerns lupus. Put plainly: SLE (lupus) model: proteinuria scores. It counts as in vivo, MRL/MpJ-Faslpr mice. As to conditions: Cyclophosphamide 50 mg/kg IP once a week. The method, then:
as §1, §4, §2, §3

For a further data set, the system named is anti-dsDNA antibodies. The data set is described as follows: SLE (lupus) model: anti-dsDNA antibodies in serum by ELISA. It counts as in vivo, MRL/MpJ-Faslpr mice. As to conditions: for Anti-dsDNA Antibodies in serum, mean: Cyclophosphamide 50 mg/kg IP once a week. The protocol: as §1, §4, §2, §3
Anti-dsDNA antibody test measures the amount of antibody to double-stranded deoxyribonucleic acid (anti-dsDNA) that may be present in the blood. Anti-dsDNA antibodies are highly specific markers of SLE as these antibodies are not thought to be present in other kinds of autoimmune disorder.
For orientation: In an ELISA, binding on a coated surface is turned into a signal by an enzyme label.

Data set [5] has as its system lupus. The data set is described as follows: SLE (lupus) model: kidney and spleen weight. In kind it is in vivo, MRL/MpJ-Faslpr mice. The conditions noted are these: Week 19. The protocol:
as §1, §4, §2, §3

The next data set has as its target IL-17A (Homo sapiens, UniProt Q16552). As to conditions: from FDA pharmacology review / corporate presentation; read-out: reported IC50 for IL-17A; cited from earlier work.
For a further data set, the system named is BET BD2. As to conditions: public sources, not a head-to-head trial, cited from earlier work.
Data set [6] has as its system goblet cells in gastrointestinal villi. The conditions noted are these: at 28 days; Faivre et al.; not head-to-head; cited from earlier work.
[7] abbreviates: Cyclophosphamide 50 mg/kg IP once a week.

Sequence of IL-17A (Q16552 24-155): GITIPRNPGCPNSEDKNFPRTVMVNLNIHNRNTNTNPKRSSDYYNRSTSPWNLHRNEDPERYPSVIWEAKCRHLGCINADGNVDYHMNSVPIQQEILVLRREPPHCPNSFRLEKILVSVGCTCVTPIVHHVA

In the data set on lupus [1], `O=P1(N(CCCl)CCCl)NCCCO1` (stereo not drawn) [Cyclophosphamide, cyclophosphamide, reference compound] returned a BUN serum concentration of 11.0 mg/dL. Besides, the “Total Glomerular Lesion (mean score)” value in the data set with lupus [2] (setting [7]) was 0.3. For the same compound, in the data set on lupus [2] (setting [7]), the “Total Glomerular Lesion (table title: Mean Total Kidney Lesion Scores)” value was 0.6. Besides, in the data set on lupus [2] (setting [7]), the “Total Tubular and Interstitial Lesion (mean score)” value amounted to 0.3. In the data set with lupus [2] (cyclophosphamide group), the “Mean total glomerular lesion score” value amounted to 0.3. Moreover, the “Mean total kidney lesion score” value in the data set with lupus [2] (cyclophosphamide group) is given as “about 0.6”. Also, in the data set with lupus [2] (cyclophosphamide group), the “Mean total tubular and interstitial lesion score” value is listed as “about 0.3”. For the same compound, the Mean Body Weight in data set [3] (Week 11) is 35.0 g; in data set [3] (Week 12), 36.2 g; in data set [3] (Week 13) it was 36.1 g; in data set [3] (Week 14), 37.2 g; in data set [3] (Week 15), 37.5 g; in data set [3] (Week 16) it was 38.6 g. Further, the Mean Body Weight in [3] (Week 17) was 38.6 g; in data set [3] (Week 18) it was 38.9 g; in [3] (Week 19) it was 39.1 g. Also, the “Relative end body weight (% of Week 11) ± SEM” value in [3] (Cyclophosphamide group) is recorded as 111.8% ± 1.7%. For the same compound, the Mean proteinuria score with lupus [4] (Week 10) was 2.00; in the data set with lupus [4] (Week 11), 2.05±; in the data set on lupus [4] (Week 12), 2.10; in the data set with lupus [4] (Week 13), 2.35; in the data set on lupus [4] (Week 14), 2.35; in the data set with lupus [4] (Week 15) it was 2.25. The Mean proteinuria score in the data set on lupus [4] (Week 16) is reported as 1.85; with lupus [4] (Week 17), 2.05; in the data set with lupus [4] (Week 18), 2.10; with lupus [4] (Week 19), 2.25. Further, the “End proteinuria score ± SEM” value in the data set on lupus [4] (end of study (Week 19)) is 2.25 ± 0.13. Further, the “Anti-dsDNA Antibodies in serum, mean” value in the data set with anti-dsDNA antibodies (Week 16) is on record as 28 units/mL; in the data set on anti-dsDNA antibodies (Week 19), 23 units/mL. The “Anti-dsDNA antibodies in serum versus Vehicle group” value with anti-dsDNA antibodies (Week 16 and Week 19, Compound A (10 mg/mL) and Cyclophosphamide) is reported as “effective in reducing levels to well below that seen with the Vehicle administered group”. In addition, the “Mean Kidney Weight” value with lupus [5] (setting [7]) was found to be 191 mg. For the same compound, in the data set on lupus [5] (setting [7]), the “Mean Spleen Weight” value worked out at 116 mg. In addition, the “Kidney weights relative to controls” value in the data set on lupus [5] (Compound A (10 mg/kg) and cyclophosphamide groups) was “slightly decreased kidney weights”. For the same compound, the “Spleen weights relative to vehicle controls” value in the data set on lupus [5] (Compound A (all tested doses) and cyclophosphamide) is on record as “decreased spleen weights”.

Take DC-806 [reference compound]: the IC50 (commonly the concentration that gives 50% inhibition) on IL-17A was 5.7 nM.

Take `CCS(=O)(=O)Nc1ccc(Oc2ccc(F)cc2F)c(-c2cn(C)c(=O)c3[nH]ccc23)c1` [ABBV-075]: the BD2 with BET BD2 (comparator BET inhibitors) is given as 13 nM. Also, the “Selectivity (BD1/BD2)” value with BET BD2 (nanoBRET assay, comparator) is on record as 2.6x. The “Effect on goblet cells in gastrointestinal villi” value in [6] is reported as “depleted goblet cells”.
